Columns and labels:
[1] = target: PIK3CA (human) (UniProt P42336); assay: Inhibition of PIK3CA Kinase Activity
[2] = target: PIK3CD (Human) (UniProt O00329); assay: Inhibition of PIK3CD Kinase Activity
[3] = target: PIK3CB (Human) (UniProt P42338); assay: Inhibition of PIK3CB Kinase Activity
[4] = target: PIK3CG (human) (UniProt P48736); assay: Inhibition of PIK3CG Kinase Activity
Sequence of PIK3CG (human) (P48736 whole entry, looked up): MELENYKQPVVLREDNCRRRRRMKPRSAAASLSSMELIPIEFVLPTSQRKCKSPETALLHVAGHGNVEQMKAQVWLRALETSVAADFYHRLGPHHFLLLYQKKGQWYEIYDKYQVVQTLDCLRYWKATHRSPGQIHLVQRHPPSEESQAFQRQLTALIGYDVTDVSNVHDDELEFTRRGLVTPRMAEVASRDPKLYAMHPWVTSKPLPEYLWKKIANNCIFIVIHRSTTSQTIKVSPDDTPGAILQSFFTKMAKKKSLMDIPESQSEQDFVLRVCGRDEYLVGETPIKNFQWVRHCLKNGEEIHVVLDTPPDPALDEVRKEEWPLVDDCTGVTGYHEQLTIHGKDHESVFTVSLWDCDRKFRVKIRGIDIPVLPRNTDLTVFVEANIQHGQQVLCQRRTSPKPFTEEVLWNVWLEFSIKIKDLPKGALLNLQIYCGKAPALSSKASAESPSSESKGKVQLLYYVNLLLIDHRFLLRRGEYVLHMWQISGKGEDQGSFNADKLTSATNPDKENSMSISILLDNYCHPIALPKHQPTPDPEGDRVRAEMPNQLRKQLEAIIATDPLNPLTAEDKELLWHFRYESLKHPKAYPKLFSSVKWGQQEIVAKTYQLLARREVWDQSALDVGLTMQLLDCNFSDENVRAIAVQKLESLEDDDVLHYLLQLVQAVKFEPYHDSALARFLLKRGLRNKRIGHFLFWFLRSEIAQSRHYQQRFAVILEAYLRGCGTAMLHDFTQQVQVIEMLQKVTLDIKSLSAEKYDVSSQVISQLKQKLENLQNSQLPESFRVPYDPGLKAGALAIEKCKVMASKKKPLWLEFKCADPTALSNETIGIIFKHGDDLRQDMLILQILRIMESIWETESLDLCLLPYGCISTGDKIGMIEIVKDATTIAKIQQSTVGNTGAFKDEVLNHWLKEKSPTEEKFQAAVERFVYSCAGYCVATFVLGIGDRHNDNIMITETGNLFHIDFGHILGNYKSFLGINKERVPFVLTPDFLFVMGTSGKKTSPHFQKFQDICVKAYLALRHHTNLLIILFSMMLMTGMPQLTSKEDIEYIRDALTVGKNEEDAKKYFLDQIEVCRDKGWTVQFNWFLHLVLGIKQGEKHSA

Sequence of PIK3CA (human) (P42336 whole entry, looked up): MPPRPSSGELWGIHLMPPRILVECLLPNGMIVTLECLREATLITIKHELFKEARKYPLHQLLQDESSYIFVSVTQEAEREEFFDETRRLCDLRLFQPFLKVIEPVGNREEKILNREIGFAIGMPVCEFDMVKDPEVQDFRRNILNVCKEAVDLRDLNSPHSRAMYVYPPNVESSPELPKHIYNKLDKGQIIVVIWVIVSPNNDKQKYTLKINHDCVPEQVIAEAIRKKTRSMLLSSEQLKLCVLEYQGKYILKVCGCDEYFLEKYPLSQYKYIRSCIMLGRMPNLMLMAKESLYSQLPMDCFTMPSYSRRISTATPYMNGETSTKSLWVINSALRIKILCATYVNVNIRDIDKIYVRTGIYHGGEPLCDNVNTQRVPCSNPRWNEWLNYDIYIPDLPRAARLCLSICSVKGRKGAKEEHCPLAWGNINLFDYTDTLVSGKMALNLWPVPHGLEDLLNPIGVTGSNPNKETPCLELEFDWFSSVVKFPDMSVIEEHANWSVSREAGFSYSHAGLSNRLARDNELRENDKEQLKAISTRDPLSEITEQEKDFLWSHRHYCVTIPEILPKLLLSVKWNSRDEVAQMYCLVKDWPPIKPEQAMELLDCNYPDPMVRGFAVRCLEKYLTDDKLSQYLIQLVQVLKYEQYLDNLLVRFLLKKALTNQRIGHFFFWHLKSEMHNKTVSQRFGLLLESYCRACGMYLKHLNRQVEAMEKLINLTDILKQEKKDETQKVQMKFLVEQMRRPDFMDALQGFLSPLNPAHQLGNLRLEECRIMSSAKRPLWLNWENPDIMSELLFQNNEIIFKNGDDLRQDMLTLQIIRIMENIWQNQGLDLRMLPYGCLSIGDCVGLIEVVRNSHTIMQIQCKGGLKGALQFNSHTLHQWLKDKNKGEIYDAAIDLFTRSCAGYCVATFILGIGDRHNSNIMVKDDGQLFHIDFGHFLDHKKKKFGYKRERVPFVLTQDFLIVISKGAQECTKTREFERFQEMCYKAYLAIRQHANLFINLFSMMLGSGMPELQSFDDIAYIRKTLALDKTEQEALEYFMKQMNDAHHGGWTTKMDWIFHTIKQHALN
Sequence of PIK3CB (Human) (P42338 whole entry, looked up): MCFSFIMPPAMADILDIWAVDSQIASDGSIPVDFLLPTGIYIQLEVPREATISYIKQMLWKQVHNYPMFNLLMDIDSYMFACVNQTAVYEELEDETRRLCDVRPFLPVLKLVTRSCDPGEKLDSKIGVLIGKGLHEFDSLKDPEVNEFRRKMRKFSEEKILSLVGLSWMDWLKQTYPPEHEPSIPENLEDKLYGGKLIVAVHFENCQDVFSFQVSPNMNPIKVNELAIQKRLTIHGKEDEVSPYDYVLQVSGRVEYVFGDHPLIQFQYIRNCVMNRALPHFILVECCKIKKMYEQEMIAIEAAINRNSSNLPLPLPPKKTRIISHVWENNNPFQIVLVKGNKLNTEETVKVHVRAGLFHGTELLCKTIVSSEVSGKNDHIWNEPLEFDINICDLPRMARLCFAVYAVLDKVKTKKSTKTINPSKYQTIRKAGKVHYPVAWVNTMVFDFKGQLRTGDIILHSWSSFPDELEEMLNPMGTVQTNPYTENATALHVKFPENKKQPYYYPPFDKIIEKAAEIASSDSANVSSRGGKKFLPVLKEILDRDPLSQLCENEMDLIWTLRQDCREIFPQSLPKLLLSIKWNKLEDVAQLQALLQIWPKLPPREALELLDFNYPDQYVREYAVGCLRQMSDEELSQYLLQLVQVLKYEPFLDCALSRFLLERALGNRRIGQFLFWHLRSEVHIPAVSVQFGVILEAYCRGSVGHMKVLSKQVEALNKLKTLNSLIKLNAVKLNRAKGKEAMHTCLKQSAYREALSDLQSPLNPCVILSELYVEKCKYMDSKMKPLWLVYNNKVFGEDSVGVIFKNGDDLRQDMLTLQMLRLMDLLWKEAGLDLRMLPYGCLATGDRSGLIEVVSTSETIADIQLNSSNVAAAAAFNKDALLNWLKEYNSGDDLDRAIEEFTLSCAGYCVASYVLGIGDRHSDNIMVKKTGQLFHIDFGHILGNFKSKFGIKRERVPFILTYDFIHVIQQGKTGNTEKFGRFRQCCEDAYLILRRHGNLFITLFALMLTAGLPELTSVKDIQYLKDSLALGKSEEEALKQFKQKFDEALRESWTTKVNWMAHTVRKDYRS
Sequence of PIK3CD (Human) (O00329 whole entry, looked up): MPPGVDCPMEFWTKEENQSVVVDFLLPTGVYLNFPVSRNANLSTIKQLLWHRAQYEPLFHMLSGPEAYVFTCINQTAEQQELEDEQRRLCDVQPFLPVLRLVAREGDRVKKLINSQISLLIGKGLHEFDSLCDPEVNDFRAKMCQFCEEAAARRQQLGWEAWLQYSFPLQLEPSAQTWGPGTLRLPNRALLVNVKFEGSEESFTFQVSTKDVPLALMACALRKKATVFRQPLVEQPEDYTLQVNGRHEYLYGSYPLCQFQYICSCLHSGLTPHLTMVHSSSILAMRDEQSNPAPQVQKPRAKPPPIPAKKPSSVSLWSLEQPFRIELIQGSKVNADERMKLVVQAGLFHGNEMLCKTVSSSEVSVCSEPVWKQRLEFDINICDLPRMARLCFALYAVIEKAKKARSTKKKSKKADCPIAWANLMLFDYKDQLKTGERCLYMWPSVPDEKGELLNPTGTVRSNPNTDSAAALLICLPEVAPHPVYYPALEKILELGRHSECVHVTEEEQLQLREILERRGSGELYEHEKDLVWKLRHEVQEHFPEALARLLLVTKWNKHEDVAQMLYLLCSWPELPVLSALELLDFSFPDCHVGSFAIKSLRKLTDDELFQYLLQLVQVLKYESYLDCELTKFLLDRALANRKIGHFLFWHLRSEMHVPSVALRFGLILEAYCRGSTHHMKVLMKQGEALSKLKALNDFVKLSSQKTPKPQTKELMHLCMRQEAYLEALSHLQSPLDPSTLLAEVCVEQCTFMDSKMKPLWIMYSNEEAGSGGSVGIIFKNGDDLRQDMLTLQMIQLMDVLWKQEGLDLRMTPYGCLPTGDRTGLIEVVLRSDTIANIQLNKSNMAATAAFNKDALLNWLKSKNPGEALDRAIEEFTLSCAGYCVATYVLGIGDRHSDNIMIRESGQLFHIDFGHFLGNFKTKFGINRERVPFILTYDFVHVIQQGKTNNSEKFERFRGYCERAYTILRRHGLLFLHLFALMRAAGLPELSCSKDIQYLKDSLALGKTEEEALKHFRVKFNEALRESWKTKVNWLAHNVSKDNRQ

Structure (SMILES)	IC50 [1]	IC50 [2]	IC50 [3]	IC50 [4]
CC1(C)CC(=O)c2sc(N3CCOC[C@@H]3Cc3cccc(-c4ccccc4C(F)(F)F)c3)nc2C1	≤ 50 µM	≤ 50 µM	≤ 50 µM	≤ 50 µM
CC1(C)CC(=O)c2sc(N3CCOC[C@@H]3Cc3cccc(-c4ccc(Cl)nc4)c3)nc2C1	≤ 50 µM	≤ 50 µM	≤ 50 µM	≤ 50 µM
CC1(C)CC(=O)Nc2sc(N3CCOCC3)nc2C1	≤ 50 µM	≤ 50 µM	≤ 50 µM	≤ 50 µM
CC1(C)CC(=O)c2sc(N3CCOC[C@@H]3Cc3cccc(-c4cccnc4)c3)nc2C1	≤ 50 µM	≤ 50 µM	≤ 50 µM	≤ 50 µM
CC1(C)CC(=O)c2sc(N3CCOC[C@@H]3Cc3c[nH]c4ccccc34)nc2C1	≤ 50 µM	≤ 50 µM	≤ 50 µM	≤ 50 µM
CC1(C)CCc2nc(N3CCOCC3)sc2C(=O)N1	≤ 50 µM	≤ 50 µM	≤ 50 µM	≤ 50 µM
CC(=O)c1ccc(-c2cccc(C[C@H]3COCCN3c3nc4c(s3)C(=O)CC(C)(C)C4)c2)cc1	≤ 50 µM	≤ 50 µM	≤ 50 µM	≤ 50 µM
CCCC1CC(=O)c2sc(N3CCOCC3)nc2C1 (configuration not stated)	≤ 50 µM	≤ 50 µM	≤ 50 µM	≤ 50 µM
CC1(C)CC(=O)c2sc(N3CCOC(CC(=O)NCc4csc5ccccc45)C3)nc2C1 (configuration not stated)	≤ 50 µM	≤ 50 µM	≤ 50 µM	≤ 50 µM

Now from value to compound:

IC50 [1]	IC50 [2]	IC50 [3]	IC50 [4]	Structure (SMILES)
≤ 50 µM	≤ 50 µM	≤ 50 µM	≤ 50 µM	CC1(C)CC(=O)c2sc(N3CCOCC3CCc3ccccc3)nc2C1 (configuration not stated)
≤ 50 µM	≤ 50 µM	≤ 50 µM	≤ 50 µM	CC1(C)CC(=O)c2sc(N3CCOC[C@@H]3Cc3cccc(-c4cccc(Br)c4)c3)nc2C1
≤ 50 µM	≤ 50 µM	≤ 50 µM	≤ 50 µM	CC1(C)CC(=O)c2sc(N3CCOC[C@@H]3Cc3cccc(-c4ccccc4F)c3)nc2C1
≤ 50 µM	≤ 50 µM	≤ 50 µM	≤ 50 µM	CC1(C)CC(=O)c2sc(N3CCOC[C@@H]3Cc3cccc(-c4ccc(C#N)cc4)c3)nc2C1
≤ 50 µM	≤ 50 µM	≤ 50 µM	≤ 50 µM	COc1cccc(-c2cccc(C[C@H]3COCCN3c3nc4c(s3)C(=O)CC(C)(C)C4)c2)c1
≤ 50 µM	≤ 50 µM	≤ 50 µM	≤ 50 µM	CC1(C)CC(=O)c2sc(N3CCOC[C@@H]3Cc3cccc(-c4ccc(Br)cc4)c3)nc2C1
≤ 50 µM	≤ 50 µM	≤ 50 µM	≤ 50 µM	Cc1ccc(-c2cccc(C[C@H]3COCCN3c3nc4c(s3)C(=O)CC(C)(C)C4)c2)cc1
≤ 50 µM	≤ 50 µM	≤ 50 µM	≤ 50 µM	COc1ccc2c(c1)CCCN2C(=O)C1COCCN1c1nc2c(s1)C(=O)CC(C)(C)C2 (configuration not stated)
≤ 50 µM	≤ 50 µM	≤ 50 µM	≤ 50 µM	CC1(C)CC(=O)c2sc(N3CCOCC3Cc3c[nH]c4ccccc34)nc2C1 (configuration not stated)
